Source: US11666558B2, “Methods of treating intraocular pressure with activators of Tie-2” (EyePoint Pharmaceuticals, Inc., priority 2015, dated 2023)
Where “and” joins values, the source holds several entries; their conditions need not be identical. Equal entries are not always repeated. Structures can show the parent of a compound that is named as a salt. Blank lines part the entries; values can stand above or below the compound they belong to.

Assays:
[1] = In vitro diffusion across rabbit cornea and sclera in Franz cell; type: in vitro ADME; conditions: 1.5% of the sodium salt with 5% HPβCD in 50:50 D5W:sterile water
intraocular pressure [2] = test: Intraocular pressure change from baseline, Compound 1 BID at varying doses, 28 Day EOT (FIG. 1); type: in vivo, human; conditions: doses greater than 15 mg BID, patients with diabetic macular edema
Method: The difference in IOP was determined at the end of the trial, which was 28 days after treatment began (28 Day EOT). Changes in IOP were determined both in the study eye and the fellow eye.

intraocular pressure [3] = test: Intraocular pressure (pneumotonometer) after repeated topical and subcutaneous administration in normotensive rabbits; type: in vivo, New Zealand White rabbits
Method: To measure the tolerability and effect of Compound 1 (sodium salt) on intraocular pressure following repeated topical and subcutaneous administration, normotensive New Zealand White rabbits were treated with Compound 1 (sodium salt). Animals were acclimated 1 to 2 times per day to the intraocular pressure (IOP) measurement procedures prior to initiation of the study to determine baseline IOP levels. IOP acclimation was performed in the two weeks prior to study start for a total of 5 days. Animals with unacceptable IOP values were excluded from the study. Prior to taking all IOP measurements, 1 to 2 drops of a 0.5% proparacaine solution were applied to the eye as a topical anesthetic. OP measurements were performed with a pneumotonometer. Test and control formulations were administered to the animals once or twice daily topically into both eyes or subcutaneously starting on Day 1 according to TABLE 20 and TABLE 21 below. PM dosing, where applicable, was performed ˜8 hours after AM dosing. IOP measurements were performed twice (AM and PM) at baseline (prior to the start of dosing), twice (AM and PM) on Days 1 and 7, and once daily (AM) on Days 2-6 and Day 8. Prior to taking all IOP measurements, 1 to 2 drops of a 0.5% proparacaine solution were applied to the eye as a topical anesthetic. IOP measurements were performed with a pneumotonometer. AM IOP measurements were performed 2 hours after AM dosing; the only exceptions were Day 8 AM measurements, which were performed 24 hours after the final dose. PM IOP measurements were performed ˜5 hours (baseline and Day 1) or ˜4 hours (Day 7) after AM IOP measurements, prior to PM dosing, with at least 15 minutes elapsing between anesthetic application for PM IOP measurements and PM dosing. The final round of slit-lamp examinations was performed on Day 8.

[4] = Group 2, 0.45 mg/eye topical BID, Day 1, AM, OS
[5] = Group 2, 0.45 mg/eye topical BID, Day 1, PM, OD
[6] = Group 2, 0.45 mg/eye topical BID, Day 2, AM, OD
[7] = Group 2, 0.45 mg/eye topical BID, Day 2, AM, OS
[8] = Group 2, 0.45 mg/eye topical BID, Day 3, AM, OD
[9] = Group 2, 0.45 mg/eye topical BID, Day 3, AM, OS
[10] = Group 2, 0.45 mg/eye topical BID, Day 4, AM, OD
[11] = Group 2, 0.45 mg/eye topical BID, Day 4, AM, OS
[12] = Group 2, 0.45 mg/eye topical BID, Day 5, AM, OD
[13] = Group 3, 1.2 mg/eye topical BID, Day 1, AM, OD
[14] = Group 3, 1.2 mg/eye topical BID, Day 1, AM, OS
[15] = Group 3, 1.2 mg/eye topical BID, Day 1, PM, OD
[16] = Group 3, 1.2 mg/eye topical BID, Day 2, AM, OS
[17] = Group 3, 1.2 mg/eye topical BID, Day 3, AM, OD
[18] = Group 3, 1.2 mg/eye topical BID, Day 3, AM, OS
[19] = Group 3, 1.2 mg/eye topical BID, Day 4, AM, OD
[20] = Group 3, 1.2 mg/eye topical BID, Day 4, AM, OS
[21] = Group 3, 1.2 mg/eye topical BID, Day 5, AM, OS
[22] = Group 4, 1.2 mg/eye topical QD, Day 1, AM, OD
[23] = Group 4, 1.2 mg/eye topical QD, Day 2, AM, OD
[24] = Group 4, 1.2 mg/eye topical QD, Day 5, AM, OD

diffusion across rabbit cornea and sclera [1]: substantial diffusion
Compound: COC(=O)N[C@@H](Cc1ccccc1)C(=O)N[C@@H](Cc1ccc(NS(=O)(=O)O)cc1)c1csc(-c2cccs2)n1 [Compound 1]
intraocular pressure (IOP) relative to pre-treatment baseline (intraocular pressure [2]): decreased IOP

Compound: COC(=O)N[C@@H](Cc1ccccc1)C(=O)N[C@@H](Cc1ccc(NS(=O)(=O)O)cc1)c1csc(-c2cccs2)n1 [Compound 1 sodium salt]
Intraocular pressure (IOP), individual animal (intraocular pressure [3]; Group 2, 0.45 mg/eye topical BID, Day 1, AM, OD): 20.3 and 23.7 and 24.0 and 20.7 and 21.7 | Intraocular pressure (IOP), group Average (intraocular pressure [3]; [4]): 23.3 | Intraocular pressure (IOP), individual animal (intraocular pressure [3]; [4]): 20.7 and 25.2 and 23.3 | Intraocular pressure (IOP), group Average (intraocular pressure [3]; [5]): 25.5 | Intraocular pressure (IOP), individual animal (intraocular pressure [3]; [5]): 24.8 and 22.0 | Intraocular pressure (IOP), individual animal (intraocular pressure [3]; Group 2, 0.45 mg/eye topical BID, Day 1, PM, OS): 25.3 | Intraocular pressure (IOP), group Average (intraocular pressure [3]; [6]): 21.9 | Intraocular pressure (IOP), individual animal (intraocular pressure [3]; [6]): 22.0 and 22.7 and 25.0 | Intraocular pressure (IOP), group Average (intraocular pressure [3]; [7]): 22.2 | Intraocular pressure (IOP), individual animal (intraocular pressure [3]; [7]): 22.3 and 24.3 | Intraocular pressure (IOP), group Average (intraocular pressure [3]; [8]): 24.0 | Intraocular pressure (IOP), individual animal (intraocular pressure [3]; [8]): 25.0 and 24.2 and 26.0 and 23.8 | Intraocular pressure (IOP), group Average (intraocular pressure [3]; [9]): 24.5 | Intraocular pressure (IOP), individual animal (intraocular pressure [3]; [9]): 25.3 and 23.5 and 26.0 and 23.0 | Intraocular pressure (IOP), group Average (intraocular pressure [3]; [10]): 23.9 | Intraocular pressure (IOP), individual animal (intraocular pressure [3]; [10]): 23.8 and 22.0 and 26.7 and 25.7 | Intraocular pressure (IOP), group Average (intraocular pressure [3]; [11]): 24.3 | Intraocular pressure (IOP), individual animal (intraocular pressure [3]; [11]): 23.0 and 22.7 and 26.3 and 23.5 and 26.2 | Intraocular pressure (IOP), group Average (intraocular pressure [3]; [12]): 25.2 | Intraocular pressure (IOP), individual animal (intraocular pressure [3]; [12]): 22.8 and 28.0 and 20.7 and 25.7 | Intraocular pressure (IOP), individual animal (intraocular pressure [3]; Group 2, 0.45 mg/eye topical BID, Day 5, AM, OS): 25.0 and 28.0 and 24.2 and 26.3 | Intraocular pressure (IOP), group Average (intraocular pressure [3]; Group 2, 0.45 mg/eye topical BID, Day 6, AM, OD): 25.5 | Intraocular pressure (IOP), group Average (intraocular pressure [3]; Group 2, 0.45 mg/eye topical BID, Day 7, AM, OD): 23.7 | Intraocular pressure (IOP), group Average (intraocular pressure [3]; Group 2, 0.45 mg/eye topical BID, Day 7, AM, OS): 24.5 | Intraocular pressure (IOP), group Average (intraocular pressure [3]; [13]): 22.0 | Intraocular pressure (IOP), individual animal (intraocular pressure [3]; [13]): 23.2 and 24.0 and 20.2 | Intraocular pressure (IOP), group Average (intraocular pressure [3]; [14]): 23.2 | Intraocular pressure (IOP), individual animal (intraocular pressure [3]; [14]): 23.8 and 23.0 (2×) | Intraocular pressure (IOP), group Average (intraocular pressure [3]; [15]): 24.1 | Intraocular pressure (IOP), individual animal (intraocular pressure [3]; [15]): 24.7 and 25.2 | Intraocular pressure (IOP), individual animal (intraocular pressure [3]; Group 3, 1.2 mg/eye topical BID, Day 1, PM, OS): 24.5 (2×) and 23.7 and 25.0 | Intraocular pressure (IOP), individual animal (intraocular pressure [3]; Group 3, 1.2 mg/eye topical BID, Day 2, AM, OD): 17.5 and 25.5 | Intraocular pressure (IOP), group Average (intraocular pressure [3]; [16]): 21.2 | Intraocular pressure (IOP), individual animal (intraocular pressure [3]; [16]): 20.2 and 24.0 and 24.5 | Intraocular pressure (IOP), group Average (intraocular pressure [3]; [17]): 20.7 | Intraocular pressure (IOP), individual animal (intraocular pressure [3]; [17]): 20.0 and 23.0 and 22.2 | Intraocular pressure (IOP), group Average (intraocular pressure [3]; [18]): 21.2 | Intraocular pressure (IOP), individual animal (intraocular pressure [3]; [18]): 20.0 and 22.7 and 23.0 | Intraocular pressure (IOP), group Average (intraocular pressure [3]; [19]): 22.8 | Intraocular pressure (IOP), individual animal (intraocular pressure [3]; [19]): 23.2 and 24.8 and 22.2 | Intraocular pressure (IOP), group Average (intraocular pressure [3]; [20]): 23.2 | Intraocular pressure (IOP), individual animal (intraocular pressure [3]; [20]): 23.3 and 24.2 and 24.5 and 22.3 | Intraocular pressure (IOP), individual animal (intraocular pressure [3]; Group 3, 1.2 mg/eye topical BID, Day 5, AM, OD): 21.5 and 23.7 | Intraocular pressure (IOP), group Average (intraocular pressure [3]; [21]): 22.0 | Intraocular pressure (IOP), individual animal (intraocular pressure [3]; [21]): 22.3 and 23.5 | Intraocular pressure (IOP), group Average (intraocular pressure [3]; Group 3, 1.2 mg/eye topical BID, Day 6, AM, OS): 24.7 | Intraocular pressure (IOP), group Average (intraocular pressure [3]; Group 3, 1.2 mg/eye topical BID, Day 7, AM, OS): 22.0 | Intraocular pressure (IOP), group Average (intraocular pressure [3]; Group 3, 1.2 mg/eye topical BID, Day 7, PM, OD): 23.7 | IOP values compared to Group 1 (Vehicle) (intraocular pressure [3]; Group 3, 1.2 mg/eye topical BID, over the course of dosing): lower IOP values | Intraocular pressure (IOP), group Average (intraocular pressure [3]; [22]): 21.2 | Intraocular pressure (IOP), individual animal (intraocular pressure [3]; [22]): 22.0 and 20.2 | Intraocular pressure (IOP), individual animal (intraocular pressure [3]; Group 4, 1.2 mg/eye topical QD, Day 1, AM, OS): 22.0 and 23.3 and 21.2 | Intraocular pressure (IOP), individual animal (intraocular pressure [3]; Group 4, 1.2 mg/eye topical QD, Day 1, PM, OD): 21.3 and 24.0 | Intraocular pressure (IOP), individual animal (intraocular pressure [3]; Group 4, 1.2 mg/eye topical QD, Day 1, PM, OS): 22.5 and 25.5 | Intraocular pressure (IOP), group Average (intraocular pressure [3]; [23]): 20.0 | Intraocular pressure (IOP), individual animal (intraocular pressure [3]; [23]): 20.0 and 20.3 | Intraocular pressure (IOP), individual animal (intraocular pressure [3]; Group 4, 1.2 mg/eye topical QD, Day 2, AM, OS): 21.0 | Intraocular pressure (IOP), individual animal (intraocular pressure [3]; Group 4, 1.2 mg/eye topical QD, Day 3, AM, OD): 23.5 and 21.0 | Intraocular pressure (IOP), individual animal (intraocular pressure [3]; Group 4, 1.2 mg/eye topical QD, Day 3, AM, OS): 20.0 and 21.2 | Intraocular pressure (IOP), individual animal (intraocular pressure [3]; Group 4, 1.2 mg/eye topical QD, Day 4, AM, OD): 21.5 and 22.2 and 20.7 | Intraocular pressure (IOP), individual animal (intraocular pressure [3]; Group 4, 1.2 mg/eye topical QD, Day 4, AM, OS): 20.0 and 24.3 and 23.5 | Intraocular pressure (IOP), group Average (intraocular pressure [3]; [24]): 21.0 | Intraocular pressure (IOP), individual animal (intraocular pressure [3]; [24]): 23.8 | Intraocular pressure (IOP), individual animal (intraocular pressure [3]; Group 4, 1.2 mg/eye topical QD, Day 5, AM, OS): 22.7 and 22.0 | Intraocular pressure (IOP), group Average (intraocular pressure [3]; Group 4, 1.2 mg/eye topical QD, Day 7, AM, OS): 23.0 | IOP values compared to Group 1 (Vehicle) (intraocular pressure [3]; Group 4, 1.2 mg/eye topical QD, over the course of dosing): lower IOP values | IOP values compared to Group 1 (Vehicle) (intraocular pressure [3]; Group 5, 10 mg/kg subcutaneous BID): Lower IOP values compared to Group 1 were also seen in the early part of the study | Intraocular pressure (IOP), group Average (intraocular pressure [3]; Group 5, 10 mg/kg subcutaneous BID, Day 2, AM, OD): 21.5 | Intraocular pressure (IOP), group Average (intraocular pressure [3]; Group 5, 10 mg/kg subcutaneous BID, Day 3, AM, OD): 20.7 | Intraocular pressure (IOP), group Average (intraocular pressure [3]; Group 5, 10 mg/kg subcutaneous BID, Day 3, AM, OS): 21.3 | Intraocular pressure (IOP), group Average (intraocular pressure [3]; Group 5, 10 mg/kg subcutaneous BID, Day 4, AM, OD): 21.9 | Intraocular pressure (IOP), group Average (intraocular pressure [3]; Group 5, 10 mg/kg subcutaneous BID, Day 6, AM, OD): 24.5 | Intraocular pressure (IOP), group Average (intraocular pressure [3]; Group 5, 10 mg/kg subcutaneous BID, Day 6, AM, OS): 25.0 | Intraocular pressure (IOP), group Average (intraocular pressure [3]; Group 5, 10 mg/kg subcutaneous BID, Day 7, AM, OS): 23.9 | Intraocular pressure (IOP), group Average (intraocular pressure [3]; Group 5, 10 mg/kg subcutaneous BID, Day 7, PM, OD): 24.1 | Intraocular pressure (IOP), group Average (intraocular pressure [3]; Group 5, 10 mg/kg subcutaneous BID, Day 8, AM, OS): 24.0 | apparent reduction in intraocular pressure values (intraocular pressure [3]; Groups 3 and 4 (1.2 mg/eye topical BID, QD), Day 7 and Day 8 (24 hours after the end of dosing)): persisted | effect on intraocular pressure (intraocular pressure [3]; topically administered, 1.2 mg/eye dose, QD or BID): observed to reduce intraocular pressure
